Test results as given in ChEMBL document CHEMBL1201861, “Genomics of Drug Sensitity in Cancer screening data, Wellcome Trust Sanger Institute”.

Legend:
Assay in all cases: cells
HuP-T3 = format: functional, cell-based, Homo sapiens; settings: Homo sapiens, HuP-T3;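 also: HuP-T3 cell growth inhibition, read out with a cell viability assay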
Description: SANGER: Inhibition of human HuP-T3 cell growth in a cell viability assay.

SW837 = format: functional, cell-based, Homo sapiens; settings: Homo sapiens, SW837;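 also: growth inhibition of SW837 cells, determined with a cell viability assay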
Description: SANGER: Inhibition of human SW837 cell growth in a cell viability assay.

PANC-08-13 = format: functional, cell-based, Homo sapiens; settings: Homo sapiens, PANC-08-13;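 also: cell growth inhibition, measured with a cell viability assay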
Description: SANGER: Inhibition of human PANC-08-13 cell growth in a cell viability assay.

KMOE-2 = format: functional, cell-based; settings: Homo sapiens;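 also: growth inhibition of human KMOE-2 cells, read out with a cell viability assay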
Description: SANGER: Inhibition of human KMOE-2 cell growth in a cell viability assay.

NCI-H23 = format: functional, cell-based, Homo sapiens; settings: Homo sapiens, NCI-H23;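 also: cell viability assay measuring growth inhibition of NCI-H23 cells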
Description: SANGER: Inhibition of human NCI-H23 cell growth in a cell viability assay.

BHT-101 = format: functional, cell-based, Homo sapiens; settings: Homo sapiens, BHT-101
Description: SANGER: Inhibition of human BHT-101 cell growth in a cell viability assay.

CAL-62 = format: functional, cell-based, Homo sapiens; settings: Homo sapiens, CAL-62;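 also: growth inhibition of CAL-62 cells, read out with a cell viability assay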
Description: SANGER: Inhibition of human CAL-62 cell growth in a cell viability assay.

MZ1-PC = format: functional, cell-based, Homo sapiens; settings: Homo sapiens, MZ1-PC;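 also: cell viability assay measuring growth inhibition of human MZ1-PC cells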
Description: SANGER: Inhibition of human MZ1-PC cell growth in a cell viability assay.

KYSE-70 cell line = format: functional, cell-based, Homo sapiens; settings: Homo sapiens, KYSE-70;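 also: cell viability assay read-out, with IC50 expressing suppression of KYSE-70 cell growth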
Description: SANGER: Inhibition of human KYSE-70 cell growth in a cell viability assay.

OE33 = format: functional, cell-based, Homo sapiens; settings: Homo sapiens, OE33;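 also: growth inhibition of human OE33 cells, measured by a cell viability assay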
Description: SANGER: Inhibition of human OE33 cell growth in a cell viability assay.

LOX IMVI = format: functional, cell-based; settings: Homo sapiens
Description: SANGER: Inhibition of human LOXIMVI cell growth in a cell viability assay.

KYSE-510 = format: functional, cell-based, Homo sapiens; settings: Homo sapiens, KYSE-510;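 also: cell viability readout used to measure how strongly growth of the cell line is suppressed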
Description: SANGER: Inhibition of human KYSE-510 cell growth in a cell viability assay.

U-251 = format: functional, cell-based, Homo sapiens; settings: Homo sapiens, U-251;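 also: growth inhibition of human U-251 cells, read out through a cell viability assay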
Description: SANGER: Inhibition of human U251 cell growth in a cell viability assay.

UO-31 = format: functional, cell-based; settings: Homo sapiens;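 also: cell viability assay measuring inhibition of cell growth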
Description: SANGER: Inhibition of human U031 cell growth in a cell viability assay.

LC-2-ad = format: functional, cell-based, Homo sapiens; settings: Homo sapiens, LC-2-ad;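 also: growth inhibition of human LC-2-ad cells, read out with a cell viability assay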
Description: SANGER: Inhibition of human LC-2-ad cell growth in a cell viability assay.

D-542MG = format: functional, cell-based, Homo sapiens; settings: Homo sapiens, D-542MG
Description: SANGER: Inhibition of human D-542MG cell growth in a cell viability assay.

MPP-89 = format: functional, cell-based, Homo sapiens; settings: Homo sapiens, MPP-89;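 also: growth inhibition of human MPP-89 cells, read out with a cell viability assay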
Description: SANGER: Inhibition of human MPP-89 cell growth in a cell viability assay.

Capan-2 = format: functional, cell-based, Homo sapiens; settings: Homo sapiens, Capan-2;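 also: Capan-2 cell growth inhibition, read out with a viability assay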
Description: SANGER: Inhibition of human Capan-2 cell growth in a cell viability assay.

MN-60 = format: functional, cell-based; settings: Homo sapiens;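 also: growth inhibition of the MN-60 cell line, determined with a cell viability assay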
Description: SANGER: Inhibition of human MN-60 cell growth in a cell viability assay.

DEL = format: functional, cell-based; settings: Homo sapiens;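 also: growth inhibition of the human DEL cell line, read out with a cell viability assay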
Description: SANGER: Inhibition of human DEL cell growth in a cell viability assay.

SK-MEL-2 = format: functional, cell-based, Homo sapiens; settings: Homo sapiens, SK-MEL-2;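 also: growth inhibition of human SK-MEL-2 cells measured with a cell viability assay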
Description: SANGER: Inhibition of human SK-MEL-2 cell growth in a cell viability assay.

COR-L23 = format: functional, cell-based, Homo sapiens; settings: Homo sapiens, COR-L23;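 also: cell viability assay measuring how strongly compounds suppress growth of COR-L23 cells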
Description: SANGER: Inhibition of human COR-L23 cell growth in a cell viability assay.

DBTRG-05MG = format: functional, cell-based, Homo sapiens; settings: Homo sapiens, DBTRG-05MG;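 also: cell viability assay measuring growth inhibition of human DBTRG-05MG cells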
Description: SANGER: Inhibition of human DBTRG-05MG cell growth in a cell viability assay.

NCI-H1623 = format: functional, cell-based, Homo sapiens; settings: Homo sapiens, NCI-H1623;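 also: cell viability assay used as the read-out for growth inhibition of NCI-H1623 cells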
Description: SANGER: Inhibition of human NCI-H1623 cell growth in a cell viability assay.

MZ2-MEL = format: functional, cell-based, Homo sapiens; settings: Homo sapiens, MZ2-MEL;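 also: growth inhibition of MZ2-MEL cells read out with a cell viability assay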
Description: SANGER: Inhibition of human MZ2-MEL cell growth in a cell viability assay.

FTC-133 = format: functional, cell-based, Homo sapiens; settings: Homo sapiens, FTC-133
HT-29 = format: functional, cell-based, Homo sapiens; settings: Homo sapiens, HT-29;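 also: growth inhibition of human HT-29 cells, read out by a cell viability assay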
Description: SANGER: Inhibition of human HT-29 cell growth in a cell viability assay.

MC116 = format: functional, cell-based; settings: Homo sapiens;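 also: growth inhibition of MC116 cells, read out with a cell viability assay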
Description: SANGER: Inhibition of human MC116 cell growth in a cell viability assay.

IST-SL1 = format: functional, cell-based, Homo sapiens; settings: Homo sapiens, IST-SL1;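 also: growth inhibition of human IST-SL1 cells, read out with a cell viability assay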
Description: SANGER: Inhibition of human IST-SL1 cell growth in a cell viability assay.

LCLC-103H cell line = format: functional, cell-based, Homo sapiens; settings: Homo sapiens, LCLC-103H
Description: SANGER: Inhibition of human LCLC-103H cell growth in a cell viability assay.

OAW-42 = format: functional, cell-based, Homo sapiens; settings: Homo sapiens, OAW-42;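 also: growth inhibition of OAW-42 cells, read out with a cell viability assay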
Description: SANGER: Inhibition of human OAW-42 cell growth in a cell viability assay.

SH-4 = format: functional, cell-based, Homo sapiens; settings: Homo sapiens, SH-4;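 also: growth inhibition of SH-4 cells, read out with a cell viability assay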
Description: SANGER: Inhibition of human SH-4 cell growth in a cell viability assay.

TE-11 = format: functional, cell-based, Homo sapiens; settings: Homo sapiens, TE-11;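 also: growth inhibition of human TE-11 cells, read out by a cell viability assay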
Description: SANGER: Inhibition of human TE-11 cell growth in a cell viability assay.

LU-134-A = format: functional, cell-based; settings: Homo sapiens
Description: SANGER: Inhibition of human LU-134-A cell growth in a cell viability assay.

KGN = format: functional, cell-based, Homo sapiens; settings: Homo sapiens, KGN;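 also: growth inhibition of KGN cells, read out with a cell viability assay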
Description: SANGER: Inhibition of human KGN cell growth in a cell viability assay.

SK-MEL-1 = format: functional, cell-based; settings: Homo sapiens;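 also: growth inhibition of human SK-MEL-1 cells, read out by a cell viability assay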
Description: SANGER: Inhibition of human SK-MEL-1 cell growth in a cell viability assay.

TE-12 = format: functional, cell-based; settings: Homo sapiens;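 also: growth inhibition of TE-12 cells, read out by a cell viability assay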
Description: SANGER: Inhibition of human TE-12 cell growth in a cell viability assay.

NCI-H2228 = format: functional, cell-based, Homo sapiens; settings: Homo sapiens, NCI-H2228;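 also: growth inhibition of human NCI-H2228 cells, read out by a cell viability assay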
Description: SANGER: Inhibition of human NCI-H2228 cell growth in a cell viability assay.

NTERA-2-cl-D1 = format: functional, cell-based, Homo sapiens; settings: Homo sapiens, NTERA-2-cl-D1;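 also: inhibition of cell growth, measured with a cell viability assay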
Description: SANGER: Inhibition of human NTERA-S-cl-D1 cell growth in a cell viability assay.

HT-144 = format: functional, cell-based, Homo sapiens; settings: Homo sapiens, HT-144
Description: SANGER: Inhibition of human HT-144 cell growth in a cell viability assay.

IGROV-1 = format: functional, cell-based, Homo sapiens; settings: Homo sapiens, IGROV-1;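 also: reduction of IGROV-1 cell growth, read out with a viability assay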
Description: SANGER: Inhibition of human IGROV-1 cell growth in a cell viability assay.

SK-N-AS = format: functional, cell-based, Homo sapiens; settings: Homo sapiens, SK-N-AS;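 also: growth inhibition of human SK-N-AS cells, measured with a cell viability assay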
Description: SANGER: Inhibition of human SK-N-AS cell growth in a cell viability assay.

JVM-2 = format: functional, cell-based; settings: Homo sapiens;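 also: growth inhibition of JVM-2 cells determined by a cell viability assay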
Description: SANGER: Inhibition of human JVM-2 cell growth in a cell viability assay.

IST-MEL1 = format: functional, cell-based, Homo sapiens; settings: Homo sapiens, IST-MEL1;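 also: growth inhibition of the cell line, read out with a cell viability assay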
Description: SANGER: Inhibition of human IST-MEL1 cell growth in a cell viability assay.

KARPAS-299 = format: functional, cell-based; settings: Homo sapiens
Description: SANGER: Inhibition of human KARPAS-299 cell growth in a cell viability assay.

LS-1034 = format: functional, cell-based, Homo sapiens; settings: Homo sapiens, LS-1034
Description: SANGER: Inhibition of human LS-1034 cell growth in a cell viability assay.

GMS-10 = format: functional, cell-based, Homo sapiens; settings: Homo sapiens, GMS-10;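 also: growth inhibition of GMS-10 cells, read out as cell viability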
Description: SANGER: Inhibition of human GMS-10 cell growth in a cell viability assay.

KOSC-2 = format: functional, cell-based, Homo sapiens; settings: Homo sapiens, KOSC-2;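 also: growth inhibition of KOSC-2 cells, read out by a cell viability assay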
Description: SANGER: Inhibition of human KOSC-2 cell growth in a cell viability assay.

SW1710 = format: functional, cell-based, Homo sapiens; settings: Homo sapiens, SW1710;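 also: growth inhibition of SW1710 cells, determined with a cell viability assay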
Description: SANGER: Inhibition of human SW1710 cell growth in a cell viability assay.

HT-3 = format: functional, cell-based, Homo sapiens; settings: Homo sapiens, HT-3;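 also: growth inhibition measured with a cell viability readout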
Description: SANGER: Inhibition of human HT-3 cell growth in a cell viability assay.

NCI-H650 = format: functional, cell-based, Homo sapiens; settings: Homo sapiens, NCI-H650;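 also: growth inhibition of NCI-H650 cells, read out by a viability assay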
Description: SANGER: Inhibition of human NCI-H650 cell growth in a cell viability assay.

COc1cc([C@@H]2c3cc4c(cc3[C@@H](O[C@@H]3O[C@@H]5CO[C@@H](C)O[C@H]5[C@H](O)[C@H]3O)[C@H]3COC(=O)[C@H]23)OCO4)cc(OC)c1O [ETOPOSIDE]
IC50 (HuP-T3): > 16 µM
IC50 (SW837): > 16 µM
IC50 (PANC-08-13): > 16 µM
IC50 (KMOE-2): 8.04 µM
IC50 (NCI-H23): 13.2 µM
IC50 (BHT-101): 3.11 µM
IC50 (CAL-62): 0.851 µM
IC50 (MZ1-PC): 0.811 µM
IC50 (KYSE-70 cell line): > 16 µM
IC50 (OE33): 5.12 µM
IC50 (LOX IMVI): > 16 µM
IC50 (KYSE-510): 0.566 µM
IC50 (U-251): 0.501 µM
IC50 (UO-31): 11.3 µM
IC50 (LC-2-ad): 2.06 µM
IC50 (D-542MG): > 16 µM
IC50 (MPP-89): > 16 µM
IC50 (Capan-2): > 16 µM
IC50 (MN-60): > 16 µM
IC50 (DEL): 0.311 µM
IC50 (SK-MEL-2): > 16 µM
IC50 (COR-L23): 6.18 µM
IC50 (DBTRG-05MG): 2.63 µM
IC50 (NCI-H1623): 14 µM
IC50 (MZ2-MEL): 2.18 µM
IC50 (FTC-133): 3.59 µM
IC50 (HT-29): 1.98 µM
IC50 (MC116): > 16 µM
IC50 (IST-SL1): > 16 µM
IC50 (LCLC-103H cell line): 0.651 µM
IC50 (OAW-42): 6.06 µM
IC50 (SH-4): 3.13 µM
IC50 (TE-11): 7.46 µM
IC50 (LU-134-A): 0.299 µM
IC50 (KGN): 0.352 µM
IC50 (SK-MEL-1): > 16 µM
IC50 (TE-12): > 16 µM
IC50 (NCI-H2228): 2.66 µM
IC50 (NTERA-2-cl-D1): 0.025 µM
IC50 (HT-144): 0.0201 µM
IC50 (IGROV-1): 0.171 µM
IC50 (SK-N-AS): > 16 µM
IC50 (JVM-2): > 16 µM
IC50 (IST-MEL1): 3 µM
IC50 (KARPAS-299): > 16 µM
IC50 (LS-1034): > 16 µM
IC50 (GMS-10): > 16 µM
IC50 (KOSC-2): > 16 µM
IC50 (SW1710): 0.518 µM
IC50 (HT-3): 1.13 µM
IC50 (NCI-H650): 1.71 µM

Cc1cnc(-c2cnc(NCCNc3ccc(C#N)cn3)nc2-c2ccc(Cl)cc2Cl)[nH]1 [LADUVIGLUSIB]
IC50 (HuP-T3): > 2.56 µM
IC50 (SW837): > 2.56 µM
IC50 (PANC-08-13): > 2.56 µM
IC50 (KMOE-2): > 2.56 µM
IC50 (NCI-H23): > 2.56 µM
IC50 (BHT-101): > 2.56 µM
IC50 (CAL-62): > 2.56 µM
IC50 (MZ1-PC): > 2.56 µM
IC50 (KYSE-70 cell line): > 2.56 µM
IC50 (OE33): > 2.56 µM
IC50 (LOX IMVI): 0.588 µM
IC50 (KYSE-510): > 2.56 µM
IC50 (U-251): > 2.56 µM
IC50 (UO-31): > 2.56 µM
IC50 (LC-2-ad): > 2.56 µM
IC50 (D-542MG): > 2.56 µM
IC50 (MPP-89): > 2.56 µM
IC50 (Capan-2): > 2.56 µM
IC50 (MN-60): > 2.56 µM
IC50 (DEL): > 2.56 µM
IC50 (SK-MEL-2): > 2.56 µM
IC50 (COR-L23): > 2.56 µM
IC50 (DBTRG-05MG): > 2.56 µM
IC50 (NCI-H1623): > 2.56 µM
IC50 (MZ2-MEL): > 2.56 µM
IC50 (FTC-133): > 2.56 µM
IC50 (HT-29): > 2.56 µM
IC50 (MC116): > 2.56 µM
IC50 (IST-SL1): > 2.56 µM
IC50 (LCLC-103H cell line): > 2.56 µM
IC50 (OAW-42): > 2.56 µM
IC50 (SH-4): > 2.56 µM
IC50 (TE-11): > 2.56 µM
IC50 (LU-134-A): > 2.56 µM
IC50 (KGN): > 2.56 µM
IC50 (SK-MEL-1): > 2.56 µM
IC50 (TE-12): > 2.56 µM
IC50 (NCI-H2228): > 2.56 µM
IC50 (NTERA-2-cl-D1): > 2.56 µM
IC50 (HT-144): > 2.56 µM
IC50 (IGROV-1): > 2.56 µM
IC50 (SK-N-AS): > 2.56 µM
IC50 (JVM-2): > 2.56 µM
IC50 (IST-MEL1): > 2.56 µM
IC50 (KARPAS-299): > 2.56 µM
IC50 (LS-1034): > 2.56 µM
IC50 (GMS-10): > 2.56 µM
IC50 (KOSC-2): > 2.56 µM
IC50 (SW1710): > 2.56 µM
IC50 (HT-3): > 2.56 µM
IC50 (NCI-H650): > 2.56 µM

C[C@]1(O)C[C@@H](c2nc(-c3ccc4ccc(-c5ccccc5)nc4c3)c3c(N)nccn32)C1 [LINSITINIB]
IC50 (HuP-T3): > 2.56 µM
IC50 (SW837): > 2.56 µM
IC50 (PANC-08-13): 0.864 µM
IC50 (KMOE-2): > 2.56 µM
IC50 (NCI-H23): > 2.56 µM
IC50 (BHT-101): > 2.56 µM
IC50 (CAL-62): > 2.56 µM
IC50 (MZ1-PC): > 2.56 µM
IC50 (KYSE-70 cell line): > 2.56 µM
IC50 (OE33): > 2.56 µM
IC50 (LOX IMVI): > 2.56 µM
IC50 (KYSE-510): > 2.56 µM
IC50 (U-251): > 2.56 µM
IC50 (UO-31): > 2.56 µM
IC50 (LC-2-ad): 1.74 µM
IC50 (D-542MG): > 2.56 µM
IC50 (MPP-89): > 2.56 µM
IC50 (Capan-2): > 2.56 µM
IC50 (MN-60): > 2.56 µM
IC50 (DEL): > 2.56 µM
IC50 (SK-MEL-2): > 2.56 µM
IC50 (COR-L23): > 2.56 µM
IC50 (DBTRG-05MG): > 2.56 µM
IC50 (NCI-H1623): > 2.56 µM
IC50 (MZ2-MEL): > 2.56 µM
IC50 (FTC-133): > 2.56 µM
IC50 (HT-29): 0.242 µM
IC50 (MC116): > 2.56 µM
IC50 (IST-SL1): > 2.56 µM
IC50 (LCLC-103H cell line): > 2.56 µM
IC50 (OAW-42): > 2.56 µM
IC50 (SH-4): > 2.56 µM
IC50 (TE-11): 0.0782 µM
IC50 (LU-134-A): 2.28 µM
IC50 (KGN): > 2.56 µM
IC50 (SK-MEL-1): > 2.56 µM
IC50 (TE-12): 0.765 µM
IC50 (NCI-H2228): > 2.56 µM
IC50 (NTERA-2-cl-D1): > 2.56 µM
IC50 (HT-144): 0.262 µM
IC50 (IGROV-1): 1.15 µM
IC50 (SK-N-AS): > 2.56 µM
IC50 (JVM-2): > 2.56 µM
IC50 (IST-MEL1): > 2.56 µM
IC50 (KARPAS-299): > 2.56 µM
IC50 (LS-1034): 0.271 µM
IC50 (GMS-10): > 2.56 µM
IC50 (KOSC-2): > 2.56 µM
IC50 (SW1710): > 2.56 µM
IC50 (HT-3): > 2.56 µM
IC50 (NCI-H650): 0.214 µM
